Patent publication US4260551A, “Polyprenyl derivatives” (Sankyo Company Limited, priority 1979, dated 1981)

What was measured:
[1] = tested on: male mice (ddY strains), reserpine ulcer; assay: Anti-reserpine ulcer activity; type: in vivo; settings: Mus musculus, ip, 18 h, i.p., 5 mice, reserpine 10 mg/kg s.c., read-out: Inhibitory Ratio (ulcer area)
Method: The test was carried out in accordance with the method described by C. Blackmann, D. S. Campion and F. N. Fastier in British Journal of Pharmacology and Chemotherapy, vol. 14, 112 (1959), which is as follows:
The test compound was intraperitoneally administered to male mice (ddY strains, body weight: 28-33 g), and, 30 minutes later, reserpine was subcutaneously administered in the dose of 10 mg/kg. After 18 hours from the reserpine administration, the animal was sacrificed, and the stomach was isolated. This stomach was inflated with 2 ml of 0.5% formalin and was fixed. Then, the stomach was opened by cutting along the greater curvature, and the ulcer area*^(1) was measured with a stereoscopic microscope. The ulcer areas of the treated group and the control group were compared, and the inhibitory ratios were calculated.
*(1) ulcer area (mm^2): sum of each ulcer area (longitude×latitude).
The anti-reserpine ulcer activity shown when the test compound was intraperitoneally administered is set out in Table 1.

[2] = tested on: male rats (Donryu strain), stress ulcer; assay: Anti-stress ulcer activity (restraint-immersion); type: in vivo, rat; settings: for Ulcer index: control 22.3
Method: The test was carried out in accordance with the method described by K. takagi and S. Okabe in The Japanese Journal of Pharmacology, vol. 18, 9 (1968), which is as follows:
Male rats (Donryu strain, body weight: 200-220 g) were placed under restraint in a stress cage and immersed vertically in the water bath kept at 23°±1° C. to the height of the xiphoid of the animal. After restraint-immersion for 8 hours, the animals were sacrificed. The stomach was fixed with formalin and measured in its ulcer index *^(2). The ulcer indices of the treated group and the control group were compared, and the inhibitory ratios were calculated. The test compound was orally administered for 3 days prior to and immediately before the restraint-immersion.
*(2) ulcer index (mm): sum of the length of each linear ulcer.
The anti-stress ulcer activity shown when the test compound was orally administered is set out in Table 2.

[3] = tested on: male rats (Donryu strain), cysteamine duodenal ulcer; assay: Anti-cysteamine duodenal ulcer activity; type: in vivo, rat; settings: for Duodenal ulcer index: score 0-5, control 2.45
Method: The test was carried out in accordance with the method described by H. Selye and S. Szabo in Nature, vol. 244, 458 (1973), which is as follows. Male rats (Donryu strain, body weight: 200-220 g) had been fasted overnight, were orally treated with 300 mg/kg of cysteamine to induce duodenal ulcer. The test compounds were orally administered four times, that is, for two days prior to, immediately before and on the day next to the treatment of cysteamine. The animals were killed two days after the treatment of cysteamine, and the duodenal ulcer index*^(3) was determined. The duodenal ulcer indices of the treated group and the control group were compared, and the inhibitory ratios were calculated. |^(*3) Duodenal ulcer index: Ulcer of each animal was |scored according to the |following criteria. |0: no lesion |1: hemorrhagic spots |2: product of longitudinal and latitudinal diameters |(S) ≤ 16 mm^2 |3: product of longitudinal and latitudinal diameters |(S) ≤ 16 mm^2, 16 < (s) ≤ 25 |4: product of longitudinal and latitudinal diameters |(S) ≤ 16 mm^2, (s) > 25 mm^2 |5: perforated ulcer The anti-cysteamine duodenal ulcer activity shown when the compound was orally administered is set out in Table 3.

[4] = tested on: ddY strain male mouse; assay: Acute toxicity, ddY strain male mouse; type: in vivo; settings: 5,000 mg/kg orally given
From the text: (§1) The acute toxicity of the compound A is set out in Table 4.

[5] = tested on: Donryu strain male rat; assay: Acute toxicity, Donryu strain male rat; type: in vivo; settings: 1,000 mg/kg orally given
From the text: as §1

[6] = Arch. int. Pharmacodyn., 1964, 147, 113; cited from earlier work
[7] = 100 mg/kg/day × 4, p.o., Compound A marked *significant inhibition, probability less than 0.05
[8] = 300 mg/kg/day × 4, p.o., Compound A marked *significant inhibition, probability less than 0.05

For `CC(C)=CCC/C(C)=C/CC/C(=C/CC/C(C)=C/CO)CO` [Compound A, (E,Z,E)7-hydroxymethyl-3,11,15-trimethyl-2,6,10,14-hexadecatetraen-1-ol], the inhibition in vivo at 100 mg/kg [1] was 68.4%, the “Inhibitory ratio (ulcer index)” value ([2]; 10 mg/kg/day × 4, p.o.) was 17 and the Ulcer index ([2]; 10 mg/kg/day × 4, p.o.) was 18.5 mm. For the same molecule, the “Inhibitory ratio (ulcer index)” value ([2]; 30 mg/kg/day × 4, p.o., *significant inhibition, probability less than 0.05) was 37, the Ulcer index ([2]; 30 mg/kg/day × 4, p.o.) was 13.8 mm and the “Inhibitory ratio (ulcer index)” value [2, 7] was 43. For the same molecule, the Ulcer index ([2]; 100 mg/kg/day × 4, p.o.) was 12.7 mm, the “Inhibitory ratio (duodenal ulcer index)” value ([3]; 100 mg/kg/day × 4, p.o.) was 18 and the Duodenal ulcer index ([3]; 100 mg/kg/day × 4, p.o.) was 2.00. For the same molecule, the “Inhibitory ratio (duodenal ulcer index)” value [3, 8] was 34, the Duodenal ulcer index ([3]; 300 mg/kg/day × 4, p.o.) was 1.56 and the Death/Survival [4] was 0/5. The Death/Survival [5] was 0/5.

For `CC(C)=CCC/C(C)=C/CCC(=CCC/C(C)=C/CO)CO` [Compound B, (E,Z,E) & (E,E,E)7-hydroxymethyl-3,11,15-trimethyl-2,6,10,14-hexadecatetraen-1-ol], the inhibition in vivo at 100 mg/kg [1] was 65%.

`CC(C)=CCC/C(C)=C/CCC(=CCCC(C)=CCO)CO` [Compound C, (E,Z,E), (E,E,E), (Z,Z,E) & (Z,E,E)7-hydroxymethyl-3,11,15-trimethyl-2,6,10,14-hexadecatetraen-1-ol] gave an inhibition in vivo at 100 mg/kg [1] of 59%.

Work on `CC(=O)OC/C=C(\C)CC/C=C(/CC/C=C(\C)CCC=C(C)C)COC(C)=O` [Compound D, (E,Z,E)7-hydroxymethyl-3,11,15-trimethyl-2,6,10,14-hexadecatetraen-1-ol diacetate] yielded an inhibition in vivo at 127 mg/kg [1] of 54.2%.

With `CC(C)=CCC/C(C)=C/CC/C(=C/CC/C(C)=C/COC(=O)c1ccccc1)COC(=O)c1ccccc1` [Compound E, (E,Z,E)7-hydroxymethyl-3,11,15-trimethyl-2,6,10,14-hexadecatetraen-1-ol dibenzoate] the inhibition in vivo at 171 mg/kg ([1]; 171 mg/kg) was 64.5%.

Work on `CCCCCCCCCCCC(=O)OC/C=C(\C)CC/C=C(/CC/C=C(\C)CCC=C(C)C)COC(=O)CCCCCCCCCCC` [Compound F, (E,Z,E)7-hydroxymethyl-3,11,15-trimethyl-2,6,10,14-hexadecatetraen-1-ol dilaurate] yielded an inhibition in vivo at 220 mg/kg ([1]; 220 mg/kg) of 63.3%.

In the case of `COC/C=C(\C)CC/C=C(/CC/C=C(\C)CCC=C(C)C)COC` [Compound G, (E,Z,E)7-hydroxymethyl-3,11,15-trimethyl-2,6,10,14-hexadecatetraen-1-ol dimethyl ether], the inhibition in vivo at 109 mg/kg ([1]; 109 mg/kg) is reported as 45%.

In the case of `CC(C)=CCC/C(C)=C/CC/C(=C\CC/C(C)=C/CO)CO` [Compound H, (E,E,E)7-hydroxymethyl-3,11,15-trimethyl-2,6,10,14-hexadecatetraen-1-ol], the inhibition in vivo at 100 mg/kg [1] is reported as 57%.

For `CC(=O)OC/C=C(\C)CC/C=C(\CC/C=C(\C)CCC=C(C)C)COC(C)=O` [Compound I, (E,E,E)7-hydroxymethyl-3,11,15-trimethyl-2,6,10,14-hexadecatetraen-1-ol diacetate], the inhibition in vivo at 127 mg/kg [1] was 64.5%.

For `CC(C)=CCC/C(C)=C/CC/C(=C\CC/C(C)=C\CO)CO` [Compound J, (Z,E,E)7-hydroxymethyl-3,11,15-trimethyl-2,6,10,14-hexadecatetraen-1-ol], the inhibition in vivo at 100 mg/kg [1] was 49.4%.

Molecule `CC(C)=CCC/C(C)=C\CCC(=CCC/C(C)=C/CO)CO` [Compound K, (E,Z,Z) & (E,E,Z)7-hydroxymethyl-3,11,15-trimethyl-2,6,10,14-hexadecatetraen-1-ol] has an inhibition in vivo at 100 mg/kg [1] of 58.7%.

`CC(C)=CCCC(=CCCC(C)=CCC/C(C)=C/CO)CO` [Compound L, (E,E,E), (E,Z,E), (E,E,Z) & (E,Z,Z)11-hydroxymethyl-3,7,15-trimethyl-2,6,10,14-hexadecatetraen-1-ol] gave an inhibition in vivo at 100 mg/kg [1] of 55.3%.

Molecule `CC(C)=CCCC(=CCC/C(C)=C/CO)CO` [Compound M, (E,Z) & (E,E)7-hydroxymethyl-3,11-dimethyl-2,6,10-dodecatrien-1-ol] has an inhibition in vivo at 77.8 mg/kg ([1]; 77.8 mg/kg) of 60.1%.

In the case of `C/C(=C\CC/C(C)=C/CCC(=CCC/C(C)=C/CO)CO)CO` [Compound N, 7,15-Dihydroxymethyl-3,11-dimethyl-2,6,10,14-hexadecatetraen-1-ol], the inhibition in vivo at 105 mg/kg ([1]; 105 mg/kg) is reported as 64.5%.

`CC(C)=CCC/C(C)=C/CCC(C)=CCCC(=CCC/C(C)=C/CO)CO` [Compound O, 7-Hydroxymethyl-3,11,15,19-tetramethyl-2,6,10,14,18-eicosapentaen-1-ol] showed an inhibition in vivo at 122 mg/kg ([1]; 122 mg/kg) of 74.2%.

Molecule `CC(=O)OC/C=C(\C)CCC=C(CCC=C(C)CC/C=C(\C)CCC=C(C)C)COC(C)=O` [Compound P, 7-Hydroxymethyl-3,11,15,19-tetramethyl-2,6,10,14,18-eicosapentaen-1-ol diacetate] has an inhibition in vivo at 150 mg/kg ([1]; 150 mg/kg) of 45.7%.

Work on `CC(C)=CCC/C(C)=C/CCC(C)=CCCC(=CCC/C(C)=C/COC(=O)c1ccccc1)COC(=O)c1ccccc1` [Compound Q, 7-Hydroxymethyl-3,11,15,19-tetramethyl-2,6,10,14,18-eicosapentaen-1-ol dibenzoate] yielded an inhibition in vivo at 193 mg/kg ([1]; 193 mg/kg) of 56.2%.

In the case of `CC(C)=CCCC(C)=CCCC(C)=CCCC(=O)OC/C=C(\C)CCC=C(C)C` [Gefarnate, geranyl farnesylacetate, reference compound], the inhibition in vivo at 100 mg/kg [1] is reported as 10%, the “Inhibitory ratio (ulcer index)” value [2, 7] is reported as -13 and the Ulcer index ([2]; 100 mg/kg/day × 4, p.o.) is reported as 25.3 mm. For the same molecule, the “Inhibitory ratio (ulcer index)” value ([2]; 300 mg/kg/day × 4, p.o.) was -57, the Ulcer index ([2]; 300 mg/kg/day × 4, p.o.) was 35.0 mm and the “Inhibitory ratio (duodenal ulcer index)” value [3, 8] was 10. The Duodenal ulcer index ([3]; 300 mg/kg/day × 4, p.o.) was 2.20 and the anti-ulcer activity [6] was “has an anti-ulcer activity”.

For `NC(=O)CC[C@H](N)C(=O)O` [L-Glutamine, reference compound], the “Inhibitory ratio (duodenal ulcer index)” value ([3]; 1000 mg/kg/day × 4, p.o.) was 31 and the Duodenal ulcer index ([3]; 1000 mg/kg/day × 4, p.o.) was 1.70.
